What was measured:
PDE4D [1] = experiment: PET imaging in monkey brain, baseline and preblock; type: in vivo, rhesus monkeys (Macaca mulatta)
PDE4D [2] = biological target: PDE4D (Homo sapiens, UniProt Q08499); experiment: PET imaging in human brain; type: in vivo; settings: po, read-out: occupancy of the target enzyme
PDE4B1 (S133D) = PDE4B1 (S133D) (Homo sapiens, UniProt Q07343, S133D/S659A/S661A); experiment: PDE4 enzyme inhibition assay, counter-screen; type: biochemical
[3] = Radioligand lipophilicity; type: physicochemical; settings: n-octanol/sodium phosphate buffer, pH 7.4
[4] = Mouse iv cassette pharmacokinetics, brain uptake; type: in vivo, CD1 mice; settings: intravenous dosing; SUV = brain Cmax (ng/mL)/dose (mg/kg)/1000
Human PDE4D7* (S129D) = Human PDE4D7* (S129D) (Homo sapiens, UniProt Q08499, S190D/S715A/S717A); experiment: PDE4 enzyme inhibition assay
[5] = biological target: serotonin 5-HT2B receptor (Homo sapiens, UniProt P41595); experiment: NIMH Psychoactive Drug Screening Panel, hit; type: binding
[6] = tested on: panel of GPCRs and other binding sites; experiment: NIMH Psychoactive Drug Screening Panel

PDE4B1 (S133D), sequence (Q07343 whole entry S133D/S659A/S661A): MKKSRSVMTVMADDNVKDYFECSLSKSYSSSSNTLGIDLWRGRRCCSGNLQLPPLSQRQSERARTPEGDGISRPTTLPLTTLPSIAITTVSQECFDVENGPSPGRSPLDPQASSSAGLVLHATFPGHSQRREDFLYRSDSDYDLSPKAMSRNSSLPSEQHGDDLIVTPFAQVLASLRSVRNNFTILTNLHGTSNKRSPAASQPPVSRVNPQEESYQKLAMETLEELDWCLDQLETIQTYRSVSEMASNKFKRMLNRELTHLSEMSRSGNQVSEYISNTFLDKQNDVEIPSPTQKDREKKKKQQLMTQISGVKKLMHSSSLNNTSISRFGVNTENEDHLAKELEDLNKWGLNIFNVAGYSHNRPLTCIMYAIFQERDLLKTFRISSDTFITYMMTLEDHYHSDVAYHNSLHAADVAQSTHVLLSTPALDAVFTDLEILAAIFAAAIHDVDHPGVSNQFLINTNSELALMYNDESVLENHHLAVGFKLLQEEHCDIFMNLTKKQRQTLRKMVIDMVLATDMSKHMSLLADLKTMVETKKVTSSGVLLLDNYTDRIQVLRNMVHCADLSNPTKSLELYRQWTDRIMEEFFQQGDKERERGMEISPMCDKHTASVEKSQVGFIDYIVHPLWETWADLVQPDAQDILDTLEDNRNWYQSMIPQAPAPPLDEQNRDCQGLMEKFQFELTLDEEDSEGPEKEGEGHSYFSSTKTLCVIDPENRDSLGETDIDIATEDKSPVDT
PDE4D (Homo sapiens, UniProt Q08499), sequence (Q08499 307-809 limits assumed): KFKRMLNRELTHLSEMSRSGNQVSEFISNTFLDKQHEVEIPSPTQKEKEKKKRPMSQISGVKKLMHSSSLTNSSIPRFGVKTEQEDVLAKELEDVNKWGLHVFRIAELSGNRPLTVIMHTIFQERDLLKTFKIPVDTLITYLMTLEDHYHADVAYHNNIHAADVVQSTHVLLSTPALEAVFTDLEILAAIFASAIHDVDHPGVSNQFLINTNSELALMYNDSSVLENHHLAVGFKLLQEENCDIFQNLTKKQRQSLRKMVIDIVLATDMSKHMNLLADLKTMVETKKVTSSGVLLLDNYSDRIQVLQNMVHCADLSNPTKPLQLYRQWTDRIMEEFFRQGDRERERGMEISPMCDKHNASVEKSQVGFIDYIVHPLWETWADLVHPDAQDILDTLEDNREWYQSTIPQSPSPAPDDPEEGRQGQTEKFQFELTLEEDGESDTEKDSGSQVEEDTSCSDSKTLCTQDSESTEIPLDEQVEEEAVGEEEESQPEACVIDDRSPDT
serotonin 5-HT2B receptor, sequence (P41595 whole entry): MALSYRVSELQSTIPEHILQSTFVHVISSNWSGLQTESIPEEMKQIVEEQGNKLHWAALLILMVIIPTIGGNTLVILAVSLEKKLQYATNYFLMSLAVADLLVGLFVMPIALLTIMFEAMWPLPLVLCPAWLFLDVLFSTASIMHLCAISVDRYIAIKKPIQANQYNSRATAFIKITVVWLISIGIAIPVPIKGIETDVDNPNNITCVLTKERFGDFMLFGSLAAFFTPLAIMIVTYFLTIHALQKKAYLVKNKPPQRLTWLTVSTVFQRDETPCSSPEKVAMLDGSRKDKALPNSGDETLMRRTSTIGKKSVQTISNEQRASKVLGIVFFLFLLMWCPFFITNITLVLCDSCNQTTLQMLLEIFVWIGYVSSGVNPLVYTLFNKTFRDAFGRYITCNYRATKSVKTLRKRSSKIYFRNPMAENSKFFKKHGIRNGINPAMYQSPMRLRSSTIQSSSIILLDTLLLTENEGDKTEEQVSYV
Human PDE4D7* (S129D), sequence (Q08499 1-748 isoform Q08499-11 S129D/S654A/S656A): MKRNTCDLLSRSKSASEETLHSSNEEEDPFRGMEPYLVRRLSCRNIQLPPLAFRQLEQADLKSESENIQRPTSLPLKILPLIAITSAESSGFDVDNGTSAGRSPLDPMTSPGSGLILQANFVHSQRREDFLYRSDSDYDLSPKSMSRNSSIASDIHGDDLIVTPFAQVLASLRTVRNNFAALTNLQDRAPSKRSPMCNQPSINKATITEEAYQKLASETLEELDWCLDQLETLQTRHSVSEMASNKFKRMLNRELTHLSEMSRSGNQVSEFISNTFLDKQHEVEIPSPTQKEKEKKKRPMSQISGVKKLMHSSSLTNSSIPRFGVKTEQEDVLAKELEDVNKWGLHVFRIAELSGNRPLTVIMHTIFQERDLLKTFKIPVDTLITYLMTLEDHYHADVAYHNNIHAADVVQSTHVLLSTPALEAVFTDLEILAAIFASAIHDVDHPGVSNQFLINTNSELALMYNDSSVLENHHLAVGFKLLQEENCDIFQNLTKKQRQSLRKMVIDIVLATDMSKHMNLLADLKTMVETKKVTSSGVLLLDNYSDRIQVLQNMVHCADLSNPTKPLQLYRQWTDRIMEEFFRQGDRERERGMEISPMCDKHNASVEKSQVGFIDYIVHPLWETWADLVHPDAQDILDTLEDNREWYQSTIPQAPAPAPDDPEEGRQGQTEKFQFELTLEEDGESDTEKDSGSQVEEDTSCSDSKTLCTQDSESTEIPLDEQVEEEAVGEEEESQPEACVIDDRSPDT

IC50 (PDE4B1 (S133D)) | logD [3] | SUV, brain uptake in mice [4] | SMILES | other results
 |  |  | O=C(O)Cc1ccc(Cc2cc(-c3cccc(Cl)c3)nc(C(F)(F)F)c2)cc1 [BPN14770] | PDE4D target occupancy (Lassen plot) (PDE4D [1]; radioligand [11C]T1650, blocking dose 3 mg/kg i.v.): 63%; receptor occupancy at 50 mg (PDE4D [2]): ~40%
720 nM | 3.45 | 0.94 SUV | COc1ccc(Cc2ccncc2)nc1-c1cccc(Cl)c1 [Compound 3, 2-(3-chlorophenyl)-3-methoxy-6-[(pyridin-4-yl)methyl]pyridine] | 
858 nM | 3.07 | 1.44 SUV | Cn1cc(Cc2ccc(OC(F)F)c(-c3cccc(Cl)c3)n2)cn1 [Compound 4, 2-(3-chlorophenyl)-3-(difluoromethoxy)-6-[(1-methyl-1H-pyrazol-4-yl)methyl]pyridine] | IC50 (Human PDE4D7* (S129D)): 0.5 nM
280 nM | 3.38 | 1.76 SUV | COc1ccc(Cc2ccncc2)nc1-c1cccc([N+](=O)[O-])c1 [Compound 5, 3-methoxy-2-(3-nitrophenyl)-6-[(pyridin-4-yl)methyl]pyridine] | 
 |  |  | COc1ccc(C2CNC(=O)C2)cc1OC1CCCC1 (centres unmarked) [rolipram] | PDE4D target occupancy (Lassen plot) (PDE4D [1]; radioligand [11C]T1650, blocking dose 0.2 mg/kg i.v.): 63%; PDE4D target occupancy (Lassen plot) (PDE4D [1]; radioligand [11C]T1650, blocking dose 1.0 mg/kg i.v.): 93%; PDE4D target occupancy (Lassen plot) (PDE4D [1]; radioligand [11C]T1660, rolipram 1.0 mg/kg i.v.): 79%

SMILES | IC50 (PDE4B1 (S133D)) | logD [3] | SUV, brain uptake in mice [4] | other results
COc1ccc(Cc2cn[nH]c2)nc1-c1cccc([N+](=O)[O-])c1 [Compound 6] | 1120 nM | 2.89 | 1.76 SUV | IC50 [5]: 766 nM; off-target binding activity [6]: did not reveal significant off-target binding activity

Reference: paper PMC7444660 (ACS chemical neuroscience, 2020)
